# Patent publication US20210102200A1, “SMALL MOLECULE TARGETED RECRUITMENT OF A NUCLEASE TO RNA” (The Scripps Research Institute, priority 2018, published 2021)
# Target: T1, RNase L (Homo sapiens, UniProt Q05823)
# T1 construct: GST; made in house
# T1 sequence (Q05823 1-741): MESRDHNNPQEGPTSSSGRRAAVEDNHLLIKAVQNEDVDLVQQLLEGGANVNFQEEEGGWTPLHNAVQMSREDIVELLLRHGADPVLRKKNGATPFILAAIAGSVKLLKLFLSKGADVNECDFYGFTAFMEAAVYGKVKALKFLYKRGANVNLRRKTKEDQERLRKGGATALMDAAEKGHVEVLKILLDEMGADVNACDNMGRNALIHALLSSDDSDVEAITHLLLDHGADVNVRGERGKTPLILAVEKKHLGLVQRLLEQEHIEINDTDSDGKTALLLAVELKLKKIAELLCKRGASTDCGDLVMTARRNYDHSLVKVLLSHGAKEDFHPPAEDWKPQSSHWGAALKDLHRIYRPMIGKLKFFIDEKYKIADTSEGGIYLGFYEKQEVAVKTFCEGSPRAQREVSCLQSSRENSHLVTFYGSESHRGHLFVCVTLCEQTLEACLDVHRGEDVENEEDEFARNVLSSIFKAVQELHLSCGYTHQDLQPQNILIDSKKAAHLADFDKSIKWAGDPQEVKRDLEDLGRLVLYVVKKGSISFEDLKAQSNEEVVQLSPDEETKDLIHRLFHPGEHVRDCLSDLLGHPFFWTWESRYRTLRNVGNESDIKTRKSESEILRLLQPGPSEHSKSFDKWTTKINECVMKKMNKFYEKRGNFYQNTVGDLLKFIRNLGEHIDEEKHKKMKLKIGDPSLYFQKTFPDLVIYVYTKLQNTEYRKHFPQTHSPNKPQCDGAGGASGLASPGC
# Assay: In vitro RNase L oligomerization, TGP-210-RL study
# Type: biochemical
# Conditions: in vitro cross-linking
# Description: An aliquot of RNase L (3 μM) in 1×RNase L Buffer was supplemented with 10 mM MgCl2, fresh 7 mM β-mercaptoethanol, and 50 μM of ATP. Dilutions of 2′-5′ A4, TGP-210, or TGP-210-RL were prepared in 1×RNase L Buffer supplemented with 10 mM MgCl2, fresh 7 mM β-mercaptoethanol, and 50 μM of ATP and added to the solution of RNase L in a total volume of 17.4 μL. The RNase L/compound solutions were incubated at room temperature for 5 min and then 1 μL of 44 mM dimethyl suberimidate (Thomas Scientific) in 0.4 M triethanolamine hydrochloride, pH 8.5, was added. After incubating at room temperature for 2 h, 3.6 μL of 6×Laemmli buffer (375 mM Tris-HCl, pH 6.8, 0.03% bromophenol blue, 0.6% β-mercaptoethanol, 12% SDS, 60% glycerol) was added. After heat denaturing the samples at 95° C. for 5 min, the samples were diluted 1:90 in 1×Laemmli buffer and then resolved by SDS-PAGE. After transferring to a PVDF membrane, the membrane was blocked in 1×TBST [1×TBS with 0.1% Tween-20 (v/v)] containing 5% nonfat milk for 1 h. […] After washing the membrane five times for 5 min each with 1×TBST, protein levels were quantified by chemiluminescence with SuperSignal West Pico Chemiluminescent Substrate (Pierce Biotechnology) per the manufacturer's protocol. RNase L bands associated with monomeric or oligomeric signals were quantified using ImageJ software (National Institutes of Health).
substance,measurement,value
Targapremir-210 [TGP-210],Oligomerization of RNase L,not
